The values below come from patent US8080529B2, “Macrolides with anti-inflammatory activity” (Glaxo Group Limited, priority 2005, dated 2011).

Common to all, as to assay type: cell-based
In one test the test system is IL-8. Briefly: Inhibition of IL-8 production by stimulated human peripheral blood leukocytes in vitro. How it is done: (§1) Test substances used in in vitro experiments were dissolved in dimethyl sulfoxide (DMSO) (Kemika, Croatia) at concentrations of 50 mM and 10 mM, and were further diluted to final concentrations of 50 μM and 10 μM in 1 mL Dulbecco's modified Eagle medium (DMEM) supplemented with 1% heat inactivated fetal bovine serum (FBS), 1% L-glutamine, 50 U/ml penicillin, 50 μg/ml streptomycin and 2.5 μg/mL Fungizone (amphotericin B). Media and all media supplements were purchased from Gibco, Australia, except the FBS was purchased from Sigma, USA.
(§2) Peripheral blood leukocytes (PBL) were obtained from venous blood of healthy volunteers by sedimentation on 2% dextran T-500 (Amersham Biosciences, USA) and subsequent centrifugations of leukocyte rich plasma.
(§3) Peripheral blood leukocytes (PBL), isolated as described above, were seeded in a 48-well plate at a concentration of 3 to 5×10^6 cell per well in culture medium consisting of RPMI 1640 medium (Institute of Immunology, Croatia) supplemented with 10% heat-inactivated fetal calf serum (FCS, Biowhittaker, USA), 100 U/ml penicillin (Gibco, Australia), 100 μg/ml streptomycin (Gibco, Australia) and 2 mM L-glutamine (Gibco, Australia), and preincubated with the test compounds for 2 h at 37° C., in an atmosphere of 5% CO2, and 90% humidity. Then, stimuli (Sigma, USA) were added to a final concentration of 2 μg/mL lipopolysaccharide (LPS), 1 μg/mL phorbol 12-myristate 13-acetate (PMA) or 120 μg/mL zymosan. Samples were incubated overnight under conditions described above. At the end of incubation, the supernatants were transferred to eppendorf tubes and centrifuged for 10 min at 1500×g. Concentrations of human TNF-α, IL-1β, IL-6 and IL-8 were determined in cell supernatants by sandwich ELISA, using capture and detection antibodies (R&D Systems, Minneapolis, Minn.) according to the manufacturer's recommendations.
(§4) Inhibition (as percentage) was calculated using the following formula: % inhibition=(1−concentration of cytokines in sample/concentration of cytokines in positive control)×100.
(§5) The positive control refers to LPS-, PMA- or zymosan-stimulated samples that were not preincubated with test compounds.

The next test deals with TNF-α. Briefly: Inhibition of TNF-α production by stimulated human peripheral blood leukocytes in vitro. How it is done:
as §1, §2, §3, §4, §5

Another test concerns IL-6. In words: Inhibition of IL-6 production by stimulated human peripheral blood leukocytes in vitro. How it is done: as §1, §2, §3, §4, §5
The subject of a further test is IL-1α. Briefly: Inhibition of IL-1 production by stimulated human peripheral blood leukocytes in vitro.

In the case of `CCC(=O)N(C)[C@H]1C[C@@H](C)O[C@@H](O[C@@H]2[C@@H](C)[C@H](O[C@H]3C[C@@](C)(OC)[C@@H](OC(=O)CCN(CC)CC)[C@H](C)O3)[C@@H](C)C(=O)O[C@H](CC)[C@@](C)(O)[C@H](O)[C@@H](C)NC(=O)[C@H](C)C[C@@]2(C)OC)[C@@H]1O` [Example 63, 3′-N-methyl-3′-N-propionyl-4″-O-(3-diethylaminopropionyl)-6-O-methyl-9a-aza-9a-homoerythromycin A], the “Percentage of inhibition of IL-8 production” value is 0% in the test with IL-8 (10 μM, LPS-stimulated PBL); 0% in the test with IL-8 (10 μM, PMA-stimulated PBL); 0% with IL-8 (10 μM, zymosan-stimulated PBL); 36% with IL-8 (50 μM, LPS-stimulated PBL); 3% in the test with IL-8 (50 μM, PMA-stimulated PBL); 44% in the test with IL-8 (50 μM, zymosan-stimulated PBL). In addition, the “Percentage of inhibition of TNF-α production” value is on record as 0% in the test on TNF-α (10 μM, LPS-stimulated PBL); 21% in the test on TNF-α (10 μM, PMA-stimulated PBL); 0% in the test on TNF-α (10 μM, zymosan-stimulated PBL); 69% in the test on TNF-α (50 μM, LPS-stimulated PBL); 73% with TNF-α (50 μM, PMA-stimulated PBL); 87% in the test with TNF-α (50 μM, zymosan-stimulated PBL). For the same compound, the “Percentage of inhibition of IL-6 production” value in the test with IL-6 (10 μM, LPS-stimulated PBL) is 8%; in the test on IL-6 (10 μM, PMA-stimulated PBL), 24%; with IL-6 (10 μM, zymosan-stimulated PBL) it was 0%; in the test with IL-6 (50 μM, LPS-stimulated PBL), 60%; with IL-6 (50 μM, PMA-stimulated PBL) it was 62%; in the test with IL-6 (50 μM, zymosan-stimulated PBL) it was 90%. The “Percentage of inhibition of IL-1α production” value was 59% in the test with IL-1α (10 μM, LPS-stimulated PBL); 52% with IL-1α (10 μM, PMA-stimulated PBL); 45% with IL-1α (10 μM, zymosan-stimulated PBL); 89% in the test with IL-1α (50 μM, LPS-stimulated PBL); 81% in the test with IL-1α (50 μM, PMA-stimulated PBL); 100% in the test on IL-1α (50 μM, zymosan-stimulated PBL).
